From ChEMBL document CHEMBL1137310, “Stereoselective chemoenzymatic synthesis of the four stereoisomers of l-2-(2-carboxycyclobutyl)glycine and pharmacological characterization at human excitatory amino acid transporter subtypes 1, 2, and 3” (J Med Chem, 2006)

Columns and labels:
[1] = target: Excitatory amino acid transporter 1 (Homo sapiens) (UniProt P43003); assay: Substrate activity at human EAAT1 expressed in HEK293 cells by FLIPR membrane potential assay; format: functional, cell-based
[2] = target: Excitatory amino acid transporter 1 (Homo sapiens) (UniProt P43003); assay: Substrate activity at human EAAT1 expressed in HEK293 cells relative to glutamate by FLIPR membrane potential assay; format: functional, cell-based
[3] = target: T1, Excitatory amino acid transporter 3 (Homo sapiens) (UniProt P43005); assay: Substrate activity at human EAAT3 expressed in HEK293 cells at 1000 uM relative to glutamate by FLIPR membrane potential assay; format: functional, cell-based
T1 sequence (whole entry): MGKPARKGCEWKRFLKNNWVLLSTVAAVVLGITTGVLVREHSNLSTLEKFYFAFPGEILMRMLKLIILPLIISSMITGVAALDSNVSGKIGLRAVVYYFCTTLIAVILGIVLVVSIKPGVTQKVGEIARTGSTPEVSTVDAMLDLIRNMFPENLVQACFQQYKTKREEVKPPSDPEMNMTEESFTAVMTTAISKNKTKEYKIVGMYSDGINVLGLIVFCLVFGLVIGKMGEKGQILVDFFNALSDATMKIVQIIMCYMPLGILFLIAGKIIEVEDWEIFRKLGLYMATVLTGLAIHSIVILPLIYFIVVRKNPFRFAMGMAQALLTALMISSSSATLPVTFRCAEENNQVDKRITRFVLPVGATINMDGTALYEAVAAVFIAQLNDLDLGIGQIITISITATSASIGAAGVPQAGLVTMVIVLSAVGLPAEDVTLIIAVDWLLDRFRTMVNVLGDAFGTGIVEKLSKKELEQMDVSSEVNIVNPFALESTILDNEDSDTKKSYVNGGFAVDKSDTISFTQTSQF

[4] = target: Excitatory amino acid transporter 1 (Homo sapiens) (UniProt P43003); assay: Substrate activity at human EAAT1 expressed in HEK293 cells at 1000 uM relative to glutamate by FLIPR membrane potential assay; format: functional, cell-based
[5] = target: T1, Excitatory amino acid transporter 3 (Homo sapiens); assay: Substrate activity at human EAAT3 expressed in HEK293 cells by FLIPR membrane potential assay; format: functional, cell-based
[6] = target: Excitatory amino acid transporter 2 (Homo sapiens) (UniProt P43004); conditions: HEK293
Sequence of Excitatory amino acid transporter 2 (Homo sapiens) (P43004 whole entry): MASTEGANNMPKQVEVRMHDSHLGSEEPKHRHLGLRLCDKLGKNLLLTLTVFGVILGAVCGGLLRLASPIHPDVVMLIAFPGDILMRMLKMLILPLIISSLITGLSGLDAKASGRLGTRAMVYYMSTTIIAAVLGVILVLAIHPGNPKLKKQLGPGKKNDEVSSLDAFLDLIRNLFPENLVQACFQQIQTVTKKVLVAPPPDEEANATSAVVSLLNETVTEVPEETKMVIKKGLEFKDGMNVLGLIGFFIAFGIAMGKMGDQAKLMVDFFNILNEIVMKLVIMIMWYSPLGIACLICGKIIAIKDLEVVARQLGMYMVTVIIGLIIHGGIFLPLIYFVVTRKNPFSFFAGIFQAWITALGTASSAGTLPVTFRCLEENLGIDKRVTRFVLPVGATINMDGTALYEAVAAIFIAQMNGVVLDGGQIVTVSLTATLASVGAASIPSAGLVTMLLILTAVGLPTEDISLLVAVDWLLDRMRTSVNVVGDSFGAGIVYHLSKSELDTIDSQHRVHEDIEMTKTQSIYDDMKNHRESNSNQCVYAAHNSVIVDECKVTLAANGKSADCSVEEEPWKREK
Description: Substrate activity at human EAAT2 expressed in HEK293 cells by FLIPR membrane potential assay

Sequence of Excitatory amino acid transporter 1 (Homo sapiens) (P43003 whole entry): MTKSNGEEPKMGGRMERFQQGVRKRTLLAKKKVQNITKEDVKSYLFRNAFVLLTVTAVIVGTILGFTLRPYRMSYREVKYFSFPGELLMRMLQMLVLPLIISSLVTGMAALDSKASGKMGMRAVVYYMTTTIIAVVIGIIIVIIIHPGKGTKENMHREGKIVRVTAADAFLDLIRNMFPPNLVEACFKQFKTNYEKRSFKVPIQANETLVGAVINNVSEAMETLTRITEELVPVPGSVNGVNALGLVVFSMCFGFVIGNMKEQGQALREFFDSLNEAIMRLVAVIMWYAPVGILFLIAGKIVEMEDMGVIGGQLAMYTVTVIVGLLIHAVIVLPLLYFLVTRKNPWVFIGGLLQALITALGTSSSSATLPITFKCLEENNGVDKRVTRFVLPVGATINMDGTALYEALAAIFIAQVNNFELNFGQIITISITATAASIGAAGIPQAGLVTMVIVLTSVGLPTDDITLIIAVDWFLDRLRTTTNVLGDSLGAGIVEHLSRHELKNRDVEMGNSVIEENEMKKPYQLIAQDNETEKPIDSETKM

Row | pKm [1] | Activity [2] | Activity [3] | Activity [4] | pKm [5] | pKm [6] | Compound
1 | 4 | 94% |  |  |  |  | N[C@H](C(=O)O)[C@@H]1CC[C@H]1C(=O)O
2 |  |  | 48% | 72% |  |  | N[C@H](C(=O)O)[C@H]1CC[C@@H]1C(=O)O
3 | 5.1 |  |  |  | 5 | 4.7 | N[C@@H](CCC(=O)O)C(=O)O
